25 compounds from patent publication US20260374756A1, “HETEROCYCLIC COMPOUNDS AS INHIBITORS OF MONOACYLGLYCEROL LIPASE (MAGL)” (Hoffmann-La Roche Inc., priority 2022, published 2026) can be followed below.

In this assay the target is T1, hMAGL (Homo sapiens, UniProt Q99685).
T1 sequence (Q99685 1-303): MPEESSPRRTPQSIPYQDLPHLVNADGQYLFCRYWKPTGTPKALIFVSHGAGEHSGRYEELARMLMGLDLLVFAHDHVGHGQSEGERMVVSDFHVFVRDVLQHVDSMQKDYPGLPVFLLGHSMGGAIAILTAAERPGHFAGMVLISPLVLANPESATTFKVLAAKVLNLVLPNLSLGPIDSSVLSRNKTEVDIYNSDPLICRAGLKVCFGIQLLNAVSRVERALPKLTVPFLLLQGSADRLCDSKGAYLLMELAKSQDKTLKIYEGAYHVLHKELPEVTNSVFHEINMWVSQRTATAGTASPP
In words: 2-AG assay: MAGL inhibition, hydrolysis of 2-arachidonoylglycerol to arachidonic acid followed by mass spectrometry. It counts as biochemical. Summed up:
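Read-out is LC-MS/MS of arachidonic acid released from 2-arachidonoylglycerol (8 μM final), normalised to d8-arachidonic acid internal standard after acetonitrile quench. Enzyme […] and compound were pre-mixed 15 min, then reacted 30 min, both at RT, in Tris/EDTA buffer with 0.01% Tween-20 and 2.5% DMSO.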

Molecules are shown by their SMILES.

`O=C(N1CC2(CC(n3cnc(C4CC4)n3)C2)C1)N1CC2(CN(Cc3conc3C(F)(F)F)C2)C1` [Example 219, [6-(3-cyclopropyl-1,2,4-triazol-1-yl)-2-azaspiro[3.3]heptan-2-yl]-[6-[[3-(trifluoromethyl)isoxazol-4-yl]methyl]-2,6-diazaspiro[3.3]heptan-2-yl]methanone]: the IC50 – broadly, the concentration that gives 50% inhibition – came out at 0.00882 µM.
On to `O=C(N1CC2(CC(Cn3ncc(C(F)(F)F)n3)C2)C1)N1CC2(CC(n3cnc(C4(O)CC4)n3)C2)C1` [Example 292, [6-[3-(1-hydroxycyclopropyl)-1,2,4-triazol-1-yl]-2-azaspiro[3.3]heptan-2-yl]-[6-[[4-(trifluoromethyl)triazol-2-yl]methyl]-2-azaspiro[3.3]heptan-2-yl]methanone], for which half-maximal inhibition (IC50) was put at 0.00431 µM.
`Cn1nc(CN2CC3(C2)CN(C(=O)N2CC4(CC(n5cnc(C(F)(F)F)n5)C4)C2)C3)cc1C(F)(F)F` [Example 161, [6-[[1-methyl-5-(trifluoromethyl)pyrazol-3-yl]methyl]-2,6-diazaspiro[3.3]heptan-2-yl]-[6-[3-(trifluoromethyl)-1,2,4-triazol-1-yl]-2-azaspiro[3.3]heptan-2-yl]methanone]: the IC50 is 0.00239 µM.
As for `CC(C)(C)c1nnc(CN2CC3(C2)CN(C(=O)N2CC4(CC(n5cnc(C6(O)CC6)n5)C4)C2)C3)s1` [Example 210, [6-[(5-tert-butyl-1,3,4-thiadiazol-2-yl)methyl]-2,6-diazaspiro[3.3]heptan-2-yl]-[6-[3-(1-hydroxycyclopropyl)-1,2,4-triazol-1-yl]-2-azaspiro[3.3]heptan-2-yl]methanone], it took 0.028 µM to reach half-maximal inhibition (IC50).
The value for `O=C(N1CC2(CC(n3cnc(C4CC4)n3)C2)C1)N1CC2(CN(Cc3nc[nH]c3C(F)(F)F)C2)C1` [Example 238, [6-(3-cyclopropyl-1,2,4-triazol-1-yl)-2-azaspiro[3.3]heptan-2-yl]-[6-[[5-(trifluoromethyl)-1H-imidazol-4-yl]methyl]-2,6-diazaspiro[3.3]heptan-2-yl]methanone] was 0.0428 µM; that for `O=C(N1CC2(CC(n3cnc(C4(O)CC4)n3)C2)C1)N1CC2(CN(Cc3nnc(C(F)(F)F)s3)C2)C1` [Example 84, [6-[3-(1-hydroxycyclopropyl)-1,2,4-triazol-1-yl]-2-azaspiro[3.3]heptan-2-yl]-[6-[[5-(trifluoromethyl)-1,3,4-thiadiazol-2-yl]methyl]-2,6-diazaspiro[3.3]heptan-2-yl]methanone] was 2.09 µM; that for `O=C(N1CC2(CC(n3cnc(C4CC4)n3)C2)C1)N1CC2(CN(Cc3nccn3C(F)(F)F)C2)C1` [Example 236, [6-(3-cyclopropyl-1,2,4-triazol-1-yl)-2-azaspiro[3.3]heptan-2-yl]-[6-[[1-(trifluoromethyl)imidazol-2-yl]methyl]-2,6-diazaspiro[3.3]heptan-2-yl]methanone] was 0.0181 µM.
For the compound `O=C(N1CC2(CC(n3cnc(C(F)(F)F)n3)C2)C1)N1CC2(CN(Cc3cn[nH]c3C(F)(F)F)C2)C1` [Example 49, [6-[[5-(trifluoromethyl)-1H-pyrazol-4-yl]methyl]-2,6-diazaspiro[3.3]heptan-2-yl]-[6-[3-(trifluoromethyl)-1,2,4-triazol-1-yl]-2-azaspiro[3.3]heptan-2-yl]methanone], 0.0478 µM corresponded to half-maximal inhibition (IC50).
Compound `O=C(N1CC2(CC(Cc3cc(C(F)(F)F)n[nH]3)C2)C1)N1CC2(CC(n3cnc(C4CC4)n3)C2)C1` [Example 300, [6-(3-cyclopropyl-1,2,4-triazol-1-yl)-2-azaspiro[3.3]heptan-2-yl]-[6-[[3-(trifluoromethyl)-1H-pyrazol-5-yl]methyl]-2-azaspiro[3.3]heptan-2-yl]methanone] showed a 50% inhibitory concentration (IC50) of 0.00012 µM.
In turn, `O=C(N1CC2(CC(Cn3cnc(C4(C(F)(F)F)CC4)n3)C2)C1)N1CC2(CC(n3cnc(C4(O)CC4)n3)C2)C1` [Example 75, [6-[3-(1-hydroxycyclopropyl)-1,2,4-triazol-1-yl]-2-azaspiro[3.3]heptan-2-yl]-[6-[[3-[1-(trifluoromethyl)cyclopropyl]-1,2,4-triazol-1-yl]methyl]-2-azaspiro[3.3]heptan-2-yl]methanone] displayed an IC50 of 0.00762 µM.
`O=C(N1CC2(CC(n3cnc(C4CC4)n3)C2)C1)N1CC2(CN(Cc3cnc(C(F)F)s3)C2)C1` [Example 279, [6-(3-cyclopropyl-1,2,4-triazol-1-yl)-2-azaspiro[3.3]heptan-2-yl]-[6-[[2-(difluoromethyl)thiazol-5-yl]methyl]-2,6-diazaspiro[3.3]heptan-2-yl]methanone] had an IC50 of 0.00922 µM.
As to `CS(=O)(=O)c1cnn(CC2CC3(C2)CN(C(=O)N2CC4(CC(n5cnc(C6(O)CC6)n5)C4)C2)C3)c1` [Example 313, [6-[3-(1-hydroxycyclopropyl)-1,2,4-triazol-1-yl]-2-azaspiro[3.3]heptan-2-yl]-[6-[(4-mesylpyrazol-1-yl)methyl]-2-azaspiro[3.3]heptan-2-yl]methanone], the IC50 worked out at 0.165 µM.
The compound `O=C(N1CC2(CC(n3cnc(C4CC4)n3)C2)C1)N1CC2(CN(Cc3cn(CC(F)(F)F)nn3)C2)C1` [Example 108, [6-(3-cyclopropyl-1,2,4-triazol-1-yl)-2-azaspiro[3.3]heptan-2-yl]-[6-[[1-(2,2,2-trifluoroethyl)triazol-4-yl]methyl]-2,6-diazaspiro[3.3]heptan-2-yl]methanone] returned an IC50 of 0.735 µM.
With `Cc1cc(C2CC2)nn1CC1CC2(C1)CN(C(=O)N1CC3(CC(n4cnc(C(F)(F)F)n4)C3)C1)C2` [Example 134, [6-[(3-cyclopropyl-5-methyl-pyrazol-1-yl)methyl]-2-azaspiro[3.3]heptan-2-yl]-[6-[3-(trifluoromethyl)-1,2,4-triazol-1-yl]-2-azaspiro[3.3]heptan-2-yl]methanone], half-maximal inhibition (IC50) required 0.00107 µM.
In turn, `Cc1nc(C(F)(F)F)c(CN2CC3(C2)CN(C(=O)N2CC4(CC(n5cnc(C(F)(F)F)n5)C4)C2)C3)s1` [Example 85] gave an IC50 of 0.0371 µM.
As for `O=C(N1CC2(CC(n3cnc(C4CC4)n3)C2)C1)N1CC2(CN(Cc3nc(C(F)(F)F)n[nH]3)C2)C1` [Example 230, [6-(3-cyclopropyl-1,2,4-triazol-1-yl)-2-azaspiro[3.3]heptan-2-yl]-[6-[[3-(trifluoromethyl)-1H-1,2,4-triazol-5-yl]methyl]-2,6-diazaspiro[3.3]heptan-2-yl]methanone], half-maximal inhibition (IC50) was put at 0.672 µM.
Consider `O=C(N1CC2(CCN(Cc3cc(C(F)(F)F)no3)CC2)C1)N1CC2(CC(n3cnc(C4CC4)n3)C2)C1` [Example 329, [6-(3-cyclopropyl-1,2,4-triazol-1-yl)-2-azaspiro[3.3]heptan-2-yl]-[7-[[3-(trifluoromethyl)isoxazol-5-yl]methyl]-2,7-diazaspiro[3.5]nonan-2-yl]methanone], for which 0.0139 µM corresponded to half-maximal inhibition (IC50).
With `O=C(N1CC2(CC(Cc3n[nH]c(C(F)(F)F)n3)C2)C1)N1CC2(CC(n3cnc(C4CC4)n3)C2)C1` [Example 10] the figure was 0.00196 µM; with `Cn1nc(C(F)(F)F)cc1CN1CCC2(CC1)CN(C(=O)N1CC3(CC(n4cnc(C(F)(F)F)n4)C3)C1)C2` [Example 25], 0.0252 µM; with `O=C(N1CC2(CC(n3cnc(C4CC4)n3)C2)C1)N1CC2(CN(Cc3ccnn3CC(F)F)C2)C1` [Example 261, [6-(3-cyclopropyl-1,2,4-triazol-1-yl)-2-azaspiro[3.3]heptan-2-yl]-[6-[[2-(2,2-difluoroethyl)pyrazol-3-yl]methyl]-2,6-diazaspiro[3.3]heptan-2-yl]methanone], 0.0957 µM.
`O=C(N1CC2(CC(n3cnc(C(F)(F)F)n3)C2)C1)N1CC2(CN(Cc3cn(CC(F)(F)F)nn3)C2)C1` [Example 107, [6-[[1-(2,2,2-trifluoroethyl)triazol-4-yl]methyl]-2,6-diazaspiro[3.3]heptan-2-yl]-[6-[3-(trifluoromethyl)-1,2,4-triazol-1-yl]-2-azaspiro[3.3]heptan-2-yl]methanone] displayed a half-inhibitory concentration (IC50) of 2.67 µM.
As for `Cc1nc(C(F)(F)F)c(CN2CC3(C2)CN(C(=O)N2CC4(CC(n5cnc(C6CC6)n5)C4)C2)C3)s1` [Example 86, [6-(3-cyclopropyl-1,2,4-triazol-1-yl)-2-azaspiro[3.3]heptan-2-yl]-[6-[[2-methyl-4-(trifluoromethyl)thiazol-5-yl]methyl]-2,6-diazaspiro[3.3]heptan-2-yl]methanone], the concentration for half-maximal inhibition (IC50) was found to be 0.00265 µM.
The value for `O=C(N1CC2(CC(Cc3n[nH]c(C4CC4)n3)C2)C1)N1CC2(CC(n3cnc(C4CC4)n3)C2)C1` [Example 304, [6-(3-cyclopropyl-1,2,4-triazol-1-yl)-2-azaspiro[3.3]heptan-2-yl]-[6-[(5-cyclopropyl-1H-1,2,4-triazol-3-yl)methyl]-2-azaspiro[3.3]heptan-2-yl]methanone] was 0.00182 µM.
`O=C(N1CC2(CC(c3cc(C4CC4)n[nH]3)C2)C1)N1CC2(CN(Cc3ncc(C(F)(F)F)s3)C2)C1` [Example 147, [6-(3-cyclopropyl-1H-pyrazol-5-yl)-2-azaspiro[3.3]heptan-2-yl]-[6-[[5-(trifluoromethyl)thiazol-2-yl]methyl]-2,6-diazaspiro[3.3]heptan-2-yl]methanone] had an IC50 of 0.00104 µM.
On to `Cn1ncc(C(F)(F)F)c1CN1CC2(C1)CN(C(=O)N1CC3(CC(c4cc(C5CC5)n[nH]4)C3)C1)C2` [Example 157, [6-(3-cyclopropyl-1H-pyrazol-5-yl)-2-azaspiro[3.3]heptan-2-yl]-[6-[[2-methyl-4-(trifluoromethyl)pyrazol-3-yl]methyl]-2,6-diazaspiro[3.3]heptan-2-yl]methanone], for which the IC50 came out at 0.00063 µM.
